{"source": "patent US20160367623A1", "about": "“AGONISTS OF GUANYLATE CYCLASE USEFUL FOR THE TREATMENT OF GASTROINTESTINAL DISORDERS, INFLAMMATION, CANCER AND OTHER DISORDERS” (priority 2015, published 2016)", "test_system": "patients with chronic idiopathic constipation (CIC)", "assay": "Second phase 3 CIC trial: change from baseline in CSBMs/week", "format": "in vivo, human", "conditions": "All Randomized (includes Duplicate Patients)", "key": {"[1]": {"conditions": "3 mg, overall average estimate across the 12-week treatment period"}}, "note": "Bridge positions count the residues as written; N and C are the ends. Ends that are not written are not given here."}
{"substance": "Asn^1-Asp^2-Glu^3-Cys^4-Glu^5-Leu^6-Cys^7-Val^8-Asn^9-Val^10-Ala^11-Cys^12-Thr^13-Gly^14-Cys^15-Leu^16 (NDECELCVNVACTGCL; disulfide 4-12, 7-15) [Plecanatide, uroguanylin analogue, guanylate cyclase-C agonist; (C4:C12, C7:C15) bicycle peptide]", "values": [{"measurement": "Change from Baseline in CSBMs, Difference from Placebo", "setting": "3 mg, Post-Treatment Week 13", "value": 0.43, "unit": "CSBMs/week"}, {"measurement": "Change from Baseline in CSBMs, LS Mean (SE)", "setting": "3 mg, Post-Treatment Week 13", "value": "1.91 (0.131) CSBMs/week"}, {"measurement": "Change from Baseline in CSBMs, Mean (SD)", "setting": "3 mg, Post-Treatment Week 13", "value": "1.87 (2.717) CSBMs/week"}, {"measurement": "Change from Baseline in CSBMs, Difference from Placebo", "setting": "3 mg, Post-Treatment Week 14", "value": 0.40, "unit": "CSBMs/week"}, {"measurement": "Change from Baseline in CSBMs, LS Mean (SE)", "setting": "3 mg, Post-Treatment Week 14", "value": "1.78 (0.133) CSBMs/week"}, {"measurement": "Change from Baseline in CSBMs, Mean (SD)", "setting": "3 mg, Post-Treatment Week 14", "value": "1.75 (2.596) CSBMs/week"}, {"measurement": "Change from Baseline in CSBMs, Difference from Placebo", "setting": "3 mg, Week 1", "value": 0.90, "unit": "CSBMs/week"}, {"measurement": "Change from Baseline in CSBMs, LS Mean (SE)", "setting": "3 mg, Week 1", "value": "1.72 (0.147) CSBMs/week"}, {"measurement": "Change from Baseline in CSBMs, Mean (SD)", "setting": "3 mg, Week 1", "value": "1.75 (2.737) CSBMs/week"}, {"measurement": "Change from Baseline in CSBMs, Difference from Placebo", "setting": "3 mg, Week 2", "value": 0.87, "unit": "CSBMs/week"}, {"measurement": "Change from Baseline in CSBMs, LS Mean (SE)", "setting": "3 mg, Week 2", "value": "1.83 (0.147) CSBMs/week"}, {"measurement": "Change from Baseline in CSBMs, Mean (SD)", "setting": "3 mg, Week 2", "value": "1.82 (2.956) CSBMs/week"}, {"measurement": "Change from Baseline in CSBMs, Difference from Placebo", "setting": "3 mg, Week 3", "value": 0.77, "unit": "CSBMs/week"}, {"measurement": "Change from Baseline in CSBMs, LS Mean (SE)", "setting": "3 mg, Week 3", "value": "1.94 (0.147) CSBMs/week"}, {"measurement": "Change from Baseline in CSBMs, Mean (SD)", "setting": "3 mg, Week 3", "value": "1.94 (3.084) CSBMs/week"}, {"measurement": "Change from Baseline in CSBMs, Difference from Placebo", "setting": "3 mg, Week 4", "value": 0.95, "unit": "CSBMs/week"}, {"measurement": "Change from Baseline in CSBMs, LS Mean (SE)", "setting": "3 mg, Week 4", "value": "2.17 (0.148) CSBMs/week"}, {"measurement": "Change from Baseline in CSBMs, Mean (SD)", "setting": "3 mg, Week 4", "value": "2.20 (3.352) CSBMs/week"}, {"measurement": "Change from Baseline in CSBMs, Difference from Placebo", "setting": "3 mg, Week 5", "value": 0.87, "unit": "CSBMs/week"}, {"measurement": "Change from Baseline in CSBMs, LS Mean (SE)", "setting": "3 mg, Week 5", "value": "2.30 (0.149) CSBMs/week"}, {"measurement": "Change from Baseline in CSBMs, Difference from Placebo", "setting": "3 mg, Week 6", "value": 1.00, "unit": "CSBMs/week"}, {"measurement": "Change from Baseline in CSBMs, LS Mean (SE)", "setting": "3 mg, Week 6", "value": "2.30 (0.149) CSBMs/week"}, {"measurement": "Change from Baseline in CSBMs, Difference from Placebo", "setting": "3 mg, Week 7", "value": 0.82, "unit": "CSBMs/week"}, {"measurement": "Change from Baseline in CSBMs, LS Mean (SE)", "setting": "3 mg, Week 7", "value": "2.28 (0.150) CSBMs/week"}, {"measurement": "Change from Baseline in CSBMs, Difference from Placebo", "setting": "3 mg, Week 8", "value": 1.01, "unit": "CSBMs/week"}, {"measurement": "Change from Baseline in CSBMs, LS Mean (SE)", "setting": "3 mg, Week 8", "value": "2.49 (0.150) CSBMs/week"}, {"measurement": "Change from Baseline in CSBMs, Difference from Placebo", "setting": "3 mg, Week 9", "value": 0.93, "unit": "CSBMs/week"}, {"measurement": "Change from Baseline in CSBMs, LS Mean (SE)", "setting": "3 mg, Week 9", "value": "2.46 (0.150) CSBMs/week"}, {"measurement": "Change from Baseline in CSBMs, Difference from Placebo", "setting": "3 mg, Week 10", "value": 0.84, "unit": "CSBMs/week"}, {"measurement": "Change from Baseline in CSBMs, LS Mean (SE)", "setting": "3 mg, Week 10", "value": "2.46 (0.150) CSBMs/week"}, {"measurement": "Change from Baseline in CSBMs, Difference from Placebo", "setting": "3 mg, Week 11", "value": 0.96, "unit": "CSBMs/week"}, {"measurement": "Change from Baseline in CSBMs, LS Mean (SE)", "setting": "3 mg, Week 11", "value": "2.53 (0.151) CSBMs/week"}, {"measurement": "Change from Baseline in CSBMs, Difference from Placebo", "setting": "3 mg, Week 12", "value": 0.95, "unit": "CSBMs/week"}, {"measurement": "Change from Baseline in CSBMs, LS Mean (SE)", "setting": "3 mg, Week 12", "value": "2.58 (0.151) CSBMs/week"}, {"measurement": "Change from Baseline in CSBMs, Difference from Placebo", "setting": "[1]", "value": 0.91, "unit": "CSBMs/week"}, {"measurement": "Change from Baseline in CSBMs, LS Mean (SE)", "setting": "[1]", "value": "2.25 (0.129) CSBMs/week"}, {"measurement": "Change from Baseline in CSBMs, Difference from Placebo", "setting": "6 mg, Post-Treatment Week 13", "value": 0.16, "unit": "CSBMs/week"}, {"measurement": "Change from Baseline in CSBMs, LS Mean (SE)", "setting": "6 mg, Post-Treatment Week 13", "value": "1.64 (0.130) CSBMs/week"}, {"measurement": "Change from Baseline in CSBMs, Mean (SD)", "setting": "6 mg, Post-Treatment Week 13", "value": "1.59 (2.376) CSBMs/week"}, {"measurement": "Change from Baseline in CSBMs, Difference from Placebo", "setting": "6 mg, Post-Treatment Week 14", "value": 0.30, "unit": "CSBMs/week"}, {"measurement": "Change from Baseline in CSBMs, LS Mean (SE)", "setting": "6 mg, Post-Treatment Week 14", "value": "1.67 (0.133) CSBMs/week"}, {"measurement": "Change from Baseline in CSBMs, Mean (SD)", "setting": "6 mg, Post-Treatment Week 14", "value": "1.62 (2.588) CSBMs/week"}, {"measurement": "Change from Baseline in CSBMs, Difference from Placebo", "setting": "6 mg, Week 1", "value": 0.88, "unit": "CSBMs/week"}, {"measurement": "Change from Baseline in CSBMs, LS Mean (SE)", "setting": "6 mg, Week 1", "value": "1.70 (0.146) CSBMs/week"}, {"measurement": "Change from Baseline in CSBMs, Mean (SD)", "setting": "6 mg, Week 1", "value": "1.71 (2.870) CSBMs/week"}, {"measurement": "Change from Baseline in CSBMs, Difference from Placebo", "setting": "6 mg, Week 2", "value": 0.85, "unit": "CSBMs/week"}, {"measurement": "Change from Baseline in CSBMs, LS Mean (SE)", "setting": "6 mg, Week 2", "value": "1.81 (0.146) CSBMs/week"}, {"measurement": "Change from Baseline in CSBMs, Mean (SD)", "setting": "6 mg, Week 2", "value": "1.83 (3.118) CSBMs/week"}, {"measurement": "Change from Baseline in CSBMs, Difference from Placebo", "setting": "6 mg, Week 3", "value": 0.65, "unit": "CSBMs/week"}, {"measurement": "Change from Baseline in CSBMs, LS Mean (SE)", "setting": "6 mg, Week 3", "value": "1.81 (0.147) CSBMs/week"}, {"measurement": "Change from Baseline in CSBMs, Mean (SD)", "setting": "6 mg, Week 3", "value": "1.83 (2.927) CSBMs/week"}, {"measurement": "Change from Baseline in CSBMs, Difference from Placebo", "setting": "6 mg, Week 4", "value": 0.80, "unit": "CSBMs/week"}, {"measurement": "Change from Baseline in CSBMs, LS Mean (SE)", "setting": "6 mg, Week 4", "value": "2.02 (0.147) CSBMs/week"}, {"measurement": "Change from Baseline in CSBMs, Difference from Placebo", "setting": "6 mg, Week 5", "value": 0.50, "unit": "CSBMs/week"}, {"measurement": "Change from Baseline in CSBMs, LS Mean (SE)", "setting": "6 mg, Week 5", "value": "1.93 (0.147) CSBMs/week"}, {"measurement": "Change from Baseline in CSBMs, Difference from Placebo", "setting": "6 mg, Week 6", "value": 0.91, "unit": "CSBMs/week"}, {"measurement": "Change from Baseline in CSBMs, LS Mean (SE)", "setting": "6 mg, Week 6", "value": "2.21 (0.148) CSBMs/week"}, {"measurement": "Change from Baseline in CSBMs, Difference from Placebo", "setting": "6 mg, Week 7", "value": 0.81, "unit": "CSBMs/week"}, {"measurement": "Change from Baseline in CSBMs, LS Mean (SE)", "setting": "6 mg, Week 7", "value": "2.27 (0.148) CSBMs/week"}, {"measurement": "Change from Baseline in CSBMs, Difference from Placebo", "setting": "6 mg, Week 8", "value": 0.81, "unit": "CSBMs/week"}, {"measurement": "Change from Baseline in CSBMs, LS Mean (SE)", "setting": "6 mg, Week 8", "value": "2.29 (0.148) CSBMs/week"}, {"measurement": "Change from Baseline in CSBMs, Difference from Placebo", "setting": "6 mg, Week 9", "value": 0.81, "unit": "CSBMs/week"}, {"measurement": "Change from Baseline in CSBMs, LS Mean (SE)", "setting": "6 mg, Week 9", "value": "2.34 (0.149) CSBMs/week"}, {"measurement": "Change from Baseline in CSBMs, Difference from Placebo", "setting": "6 mg, Week 10", "value": 0.85, "unit": "CSBMs/week"}, {"measurement": "Change from Baseline in CSBMs, LS Mean (SE)", "setting": "6 mg, Week 10", "value": "2.47 (0.149) CSBMs/week"}, {"measurement": "Change from Baseline in CSBMs, Difference from Placebo", "setting": "6 mg, Week 11", "value": 0.83, "unit": "CSBMs/week"}, {"measurement": "Change from Baseline in CSBMs, LS Mean (SE)", "setting": "6 mg, Week 11", "value": "2.40 (0.149) CSBMs/week"}, {"measurement": "Change from Baseline in CSBMs, Difference from Placebo", "setting": "6 mg, Week 12", "value": 0.86, "unit": "CSBMs/week"}, {"measurement": "Change from Baseline in CSBMs, LS Mean (SE)", "setting": "6 mg, Week 12", "value": "2.49 (0.150) CSBMs/week"}, {"measurement": "Change from Baseline in CSBMs, Difference from Placebo", "setting": "6 mg, overall average estimate across the 12-week treatment period", "value": 0.80, "unit": "CSBMs/week"}]}
